Drawing on US10168342B2, “Lipid probes and uses thereof” (THE SCRIPPS RESEARCH INSTITUTE, priority 2015, dated 2019), this text covers Times observed for 1 compound.

Common to all, as to test: isoTOP-ABPP mapping of AEA-DA-modified peptides in Neuro2a cells
Common to all, as to type: cell-based

Test [1] deals with T1, AEA-DA-modified peptides in Neuro2a cells (Mus musculus, UniProt Q9CQX2).
T1 construct: endogenous in cells; host or cells: Neuro2a
Particulars: AEA-DA-modified peptide CYB5B Q9CQX2 138-145, SEQ ID NO 28; probe 100 μM, 12 replicates.

Test [2] has as its target T2, AEA-DA-modified peptides in Neuro2a cells (Mus musculus, UniProt P19157).
T2 construct: endogenous in cells; host or cells: Neuro2a
Particulars: AEA-DA-modified peptide GSTP1 P19157 104-117, SEQ ID NO 46; probe 100 μM, 12 replicates.

Test [3] deals with T3, AEA-DA-modified peptides in Neuro2a cells (Mus musculus, UniProt P61161).
T3 construct: endogenous in cells; host or cells: Neuro2a
Particulars: AEA-DA-modified peptide ACTR2 P61161 259-295, SEQ ID NO 5; probe 100 μM, 12 replicates.

Test [4] concerns the target T4, AEA-DA-modified peptides in Neuro2a cells (Mus musculus, UniProt Q925I1).
T4 construct: endogenous in cells; host or cells: Neuro2a
The settings on record: AEA-DA-modified peptide ATAD3 Q92511 238-246, SEQ ID NO 16; probe 100 μM, 12 replicates.

The target of test [5] is T5, AEA-DA-modified peptides in Neuro2a cells (Mus musculus, UniProt P57780).
T5 construct: endogenous in cells; host or cells: Neuro2a
The settings on record: AEA-DA-modified peptide ACTN4 P57780 839-855, SEQ ID NO 4; probe 100 μM, 12 replicates.

Test [6] addresses T6, AEA-DA-modified peptides in Neuro2a cells (Mus musculus, UniProt O08579).
T6 construct: endogenous in cells; host or cells: Neuro2a
Particulars: AEA-DA-modified peptide EMD O08579 176-205, SEQ ID NO 37; probe 100 μM, 12 replicates.

Test [7] deals with T7, AEA-DA-modified peptides in Neuro2a cells (Mus musculus, UniProt P34884).
T7 construct: endogenous in cells; host or cells: Neuro2a
Particulars: AEA-DA-modified peptide MIF P34884 13-38, SEQ ID NO 60; probe 100 μM, 12 replicates.

In test [8] the target is T8, AEA-DA-modified peptides in Neuro2a cells (Mus musculus, UniProt Q60716).
T8 construct: endogenous in cells; host or cells: Neuro2a
The settings on record: AEA-DA-modified peptide P4HA2 Q60716 177-197, SEQ ID NO 76; probe 100 μM, 12 replicates.

The target in test [9] is T9, AEA-DA-modified peptides in Neuro2a cells (Mus musculus, UniProt Q8BFY9).
T9 construct: endogenous in cells; host or cells: Neuro2a
Particulars: AEA-DA-modified peptide TNPO1 Q8BFY9 45-65, SEQ ID NO 114; probe 100 μM, 12 replicates.

Test [10] addresses T10, AEA-DA-modified peptides in Neuro2a cells (Mus musculus, UniProt Q9D771).
T10 construct: endogenous in cells; host or cells: Neuro2a
Particulars: AEA-DA-modified peptide TMEM206 Q9D771 247-260, SEQ ID NO 113; probe 100 μM, 12 replicates.

The target in test [11] is T11, AEA-DA-modified peptides in Neuro2a cells (Mus musculus, UniProt Q64310).
T11 construct: endogenous in cells; host or cells: Neuro2a
The settings on record: probe 100 μM, 12 replicates.

In test [12] the target is T12, AEA-DA-modified peptides in Neuro2a cells (Mus musculus, UniProt Q62351).
T12 construct: endogenous in cells; host or cells: Neuro2a
The settings on record: AEA-DA-modified peptide TFRC Q62351 7-23, SEQ ID NO 110; probe 100 μM, 12 replicates.

T11 sequence (Q64310 whole entry): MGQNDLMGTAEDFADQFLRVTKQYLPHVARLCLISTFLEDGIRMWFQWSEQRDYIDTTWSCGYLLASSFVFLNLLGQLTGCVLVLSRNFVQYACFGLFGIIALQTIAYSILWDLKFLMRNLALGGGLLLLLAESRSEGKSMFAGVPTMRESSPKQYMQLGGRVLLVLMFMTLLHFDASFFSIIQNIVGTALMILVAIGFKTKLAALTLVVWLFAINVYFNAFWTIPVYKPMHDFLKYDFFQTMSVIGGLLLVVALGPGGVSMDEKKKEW
T8 sequence (Q60716 24-537): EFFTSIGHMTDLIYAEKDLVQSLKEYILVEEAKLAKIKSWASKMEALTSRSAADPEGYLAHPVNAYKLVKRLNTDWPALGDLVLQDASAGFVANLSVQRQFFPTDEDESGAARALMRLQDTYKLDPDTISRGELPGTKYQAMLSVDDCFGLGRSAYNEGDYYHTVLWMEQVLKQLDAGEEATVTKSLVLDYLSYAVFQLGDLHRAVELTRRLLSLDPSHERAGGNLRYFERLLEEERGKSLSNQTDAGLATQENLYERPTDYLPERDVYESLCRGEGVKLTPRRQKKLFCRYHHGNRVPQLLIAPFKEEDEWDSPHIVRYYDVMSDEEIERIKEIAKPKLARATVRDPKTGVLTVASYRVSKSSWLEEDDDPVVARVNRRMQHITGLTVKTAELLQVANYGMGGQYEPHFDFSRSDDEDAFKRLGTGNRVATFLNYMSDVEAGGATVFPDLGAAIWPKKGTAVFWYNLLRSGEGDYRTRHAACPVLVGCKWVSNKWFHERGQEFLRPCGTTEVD
T4 sequence (Q925I1 whole entry): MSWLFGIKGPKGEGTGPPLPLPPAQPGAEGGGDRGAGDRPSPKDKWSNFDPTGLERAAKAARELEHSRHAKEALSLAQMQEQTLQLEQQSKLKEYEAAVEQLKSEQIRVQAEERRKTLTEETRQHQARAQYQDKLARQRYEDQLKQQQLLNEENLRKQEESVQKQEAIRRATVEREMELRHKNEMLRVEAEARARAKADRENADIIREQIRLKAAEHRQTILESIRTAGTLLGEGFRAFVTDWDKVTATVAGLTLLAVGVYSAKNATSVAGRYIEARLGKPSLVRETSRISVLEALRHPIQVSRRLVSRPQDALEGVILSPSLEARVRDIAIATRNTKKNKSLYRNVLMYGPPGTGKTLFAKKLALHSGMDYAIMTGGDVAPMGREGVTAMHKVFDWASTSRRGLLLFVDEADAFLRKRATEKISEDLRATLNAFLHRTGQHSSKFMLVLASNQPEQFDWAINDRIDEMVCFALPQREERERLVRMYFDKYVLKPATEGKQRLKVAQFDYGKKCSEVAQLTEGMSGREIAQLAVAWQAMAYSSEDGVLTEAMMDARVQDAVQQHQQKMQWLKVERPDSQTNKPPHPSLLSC
T10 sequence (Q9D771 whole entry): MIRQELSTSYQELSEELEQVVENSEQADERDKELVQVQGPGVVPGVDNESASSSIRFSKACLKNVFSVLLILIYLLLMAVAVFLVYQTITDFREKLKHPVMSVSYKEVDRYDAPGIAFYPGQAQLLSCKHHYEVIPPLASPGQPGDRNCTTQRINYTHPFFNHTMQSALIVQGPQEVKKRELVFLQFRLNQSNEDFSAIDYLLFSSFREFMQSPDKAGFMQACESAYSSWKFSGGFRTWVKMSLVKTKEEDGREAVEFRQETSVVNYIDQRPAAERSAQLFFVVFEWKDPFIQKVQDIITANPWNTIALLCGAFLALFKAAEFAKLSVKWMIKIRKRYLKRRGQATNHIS
T1 sequence (Q9CQX2 12-146): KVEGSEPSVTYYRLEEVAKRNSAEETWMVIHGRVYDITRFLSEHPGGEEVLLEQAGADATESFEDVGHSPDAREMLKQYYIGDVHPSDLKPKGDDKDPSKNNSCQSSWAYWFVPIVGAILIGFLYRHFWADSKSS
T9 sequence (Q8BFY9 whole entry): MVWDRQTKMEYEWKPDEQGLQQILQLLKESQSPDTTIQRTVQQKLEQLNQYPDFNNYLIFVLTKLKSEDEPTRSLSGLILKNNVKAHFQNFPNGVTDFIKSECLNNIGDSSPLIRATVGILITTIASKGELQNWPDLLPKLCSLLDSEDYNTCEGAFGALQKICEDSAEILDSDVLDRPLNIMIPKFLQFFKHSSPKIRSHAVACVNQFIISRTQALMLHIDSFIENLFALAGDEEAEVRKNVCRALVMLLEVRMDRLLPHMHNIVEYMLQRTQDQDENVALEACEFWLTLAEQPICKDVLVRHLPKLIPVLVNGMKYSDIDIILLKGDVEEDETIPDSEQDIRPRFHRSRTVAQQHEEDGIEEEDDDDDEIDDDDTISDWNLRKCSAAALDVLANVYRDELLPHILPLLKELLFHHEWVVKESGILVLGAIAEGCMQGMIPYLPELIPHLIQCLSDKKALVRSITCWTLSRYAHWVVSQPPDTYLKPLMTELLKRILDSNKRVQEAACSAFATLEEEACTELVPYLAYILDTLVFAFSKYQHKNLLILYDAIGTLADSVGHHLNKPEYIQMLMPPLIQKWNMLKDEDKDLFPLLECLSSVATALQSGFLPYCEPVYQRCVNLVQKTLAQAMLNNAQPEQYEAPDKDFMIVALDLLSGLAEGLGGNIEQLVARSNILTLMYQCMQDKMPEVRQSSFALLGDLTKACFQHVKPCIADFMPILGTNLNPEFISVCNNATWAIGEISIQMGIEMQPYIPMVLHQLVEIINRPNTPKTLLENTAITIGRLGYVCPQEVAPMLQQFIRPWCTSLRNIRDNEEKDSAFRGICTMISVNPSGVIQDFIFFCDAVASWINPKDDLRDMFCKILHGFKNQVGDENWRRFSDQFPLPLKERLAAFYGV
T6 sequence (O08579 whole entry): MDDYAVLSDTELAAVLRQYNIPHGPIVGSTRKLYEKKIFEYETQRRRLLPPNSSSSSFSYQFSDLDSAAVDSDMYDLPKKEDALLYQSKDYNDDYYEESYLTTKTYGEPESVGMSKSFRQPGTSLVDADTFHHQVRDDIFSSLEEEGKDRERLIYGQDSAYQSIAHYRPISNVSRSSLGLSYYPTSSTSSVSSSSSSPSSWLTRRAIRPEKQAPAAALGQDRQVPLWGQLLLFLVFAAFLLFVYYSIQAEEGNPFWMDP
T2 sequence (P19157 whole entry): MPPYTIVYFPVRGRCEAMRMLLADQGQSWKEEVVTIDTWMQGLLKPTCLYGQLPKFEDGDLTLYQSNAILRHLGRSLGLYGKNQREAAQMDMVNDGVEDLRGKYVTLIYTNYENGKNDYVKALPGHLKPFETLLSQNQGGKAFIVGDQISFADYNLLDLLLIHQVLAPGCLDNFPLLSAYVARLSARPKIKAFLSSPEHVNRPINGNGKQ
T5 sequence (P57780 whole entry): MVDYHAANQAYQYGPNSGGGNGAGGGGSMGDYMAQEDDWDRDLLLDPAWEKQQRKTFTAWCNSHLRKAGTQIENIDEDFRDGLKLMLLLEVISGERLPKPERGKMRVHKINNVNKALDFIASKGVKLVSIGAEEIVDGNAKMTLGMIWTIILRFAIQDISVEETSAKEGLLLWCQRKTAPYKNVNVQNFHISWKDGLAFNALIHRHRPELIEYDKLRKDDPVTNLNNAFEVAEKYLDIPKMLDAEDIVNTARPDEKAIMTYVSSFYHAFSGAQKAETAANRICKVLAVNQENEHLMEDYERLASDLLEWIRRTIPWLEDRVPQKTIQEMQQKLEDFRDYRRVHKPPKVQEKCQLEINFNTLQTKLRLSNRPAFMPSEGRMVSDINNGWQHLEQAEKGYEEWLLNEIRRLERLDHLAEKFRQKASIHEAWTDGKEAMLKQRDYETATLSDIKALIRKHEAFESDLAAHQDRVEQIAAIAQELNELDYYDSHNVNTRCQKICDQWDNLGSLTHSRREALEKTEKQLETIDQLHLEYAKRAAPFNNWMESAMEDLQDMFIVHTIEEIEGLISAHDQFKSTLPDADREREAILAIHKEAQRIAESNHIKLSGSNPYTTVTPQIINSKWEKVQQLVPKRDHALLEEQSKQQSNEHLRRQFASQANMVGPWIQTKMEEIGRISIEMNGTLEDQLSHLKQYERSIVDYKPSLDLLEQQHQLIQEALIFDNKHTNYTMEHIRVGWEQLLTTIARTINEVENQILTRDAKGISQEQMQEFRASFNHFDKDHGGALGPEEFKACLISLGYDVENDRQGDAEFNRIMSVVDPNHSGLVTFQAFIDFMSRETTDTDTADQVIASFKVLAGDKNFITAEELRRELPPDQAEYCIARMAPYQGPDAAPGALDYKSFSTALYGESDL
T12 sequence (Q62351 whole entry): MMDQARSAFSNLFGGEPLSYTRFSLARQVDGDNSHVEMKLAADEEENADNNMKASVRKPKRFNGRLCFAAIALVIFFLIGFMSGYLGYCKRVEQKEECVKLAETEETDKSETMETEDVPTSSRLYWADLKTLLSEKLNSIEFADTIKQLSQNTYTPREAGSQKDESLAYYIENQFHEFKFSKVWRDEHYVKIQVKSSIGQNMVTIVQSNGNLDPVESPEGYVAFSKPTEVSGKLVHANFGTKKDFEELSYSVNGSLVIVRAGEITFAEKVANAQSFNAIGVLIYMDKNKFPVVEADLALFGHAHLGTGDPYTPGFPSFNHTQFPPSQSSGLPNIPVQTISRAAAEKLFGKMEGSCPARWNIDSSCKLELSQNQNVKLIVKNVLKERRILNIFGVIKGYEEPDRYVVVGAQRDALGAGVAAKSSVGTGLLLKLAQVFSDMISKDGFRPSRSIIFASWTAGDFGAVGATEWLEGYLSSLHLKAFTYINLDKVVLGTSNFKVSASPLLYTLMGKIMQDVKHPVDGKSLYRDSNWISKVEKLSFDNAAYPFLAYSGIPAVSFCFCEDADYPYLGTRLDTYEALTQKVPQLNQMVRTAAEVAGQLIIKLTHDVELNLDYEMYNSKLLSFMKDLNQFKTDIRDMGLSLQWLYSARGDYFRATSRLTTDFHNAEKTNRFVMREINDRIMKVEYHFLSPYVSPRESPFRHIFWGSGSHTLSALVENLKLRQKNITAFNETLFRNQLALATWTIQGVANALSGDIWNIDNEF

For the compound `C#CCCCC1(CC/C=C\C/C=C\C/C=C\CCCC(=O)NCCO)N=N1` [AEA-DA, (5Z,8Z,11Z)-N-(2-hydroxyethyl)-14-(3-(pent-4-yn-1-yl)-3H-diazirin-3-yl)tetradeca-5,8,11-trienamide], the Times observed in [1] amounted to 2; in [2], 4; in test [3], 2; in [4], 3; in [5], 2; in test [6], 2. Moreover, the Times observed is 4 in test [7]; 3 in test [8]; 5 in test [9]; 2 in test [10]; 10 in test [11] (AEA-DA-modified peptide SURF4 Q64310 2-20, SEQ ID NO 108); 3 in [11] (AEA-DA-modified peptide SURF4 Q64310 31-44, SEQ ID NO 109). The Times observed in test [12] was 2.
